The text below walks through data of patent US4533654A, “Urotensin peptides” (The Salk Institute For Biological Studies, priority 1984, dated 1985).

Like-named read-outs stand apart in the source and are kept apart here.

Assay [1] has as its system cultured rat pituitary cells. In words: Secretion of ACTH and β-endorphin by cultured rat pituitary cells. Conditions: for stimulation of the secretion of ACTH and β-endorphin: in vitro. It counts as cell-based. As to the method:
(§1) The urotensin peptides from Example II and III are examined for effects on the secretion of ACTH and β-endorphin in vitro and also examined in vivo. […] UI activity of the peptides was measured by the isolated rat hind limb assay, Lederis, K. et al. "Effects and Assay of Urotensin I on the Perfused Hind Limb of the Rat." Gen. Comp. Endocrinol., 24:10-16, 1974. In vivo hypotensive activity of extracted peptides was measured in anaesthetized rats, Lederis, K. and Medakovic, M. "Pharmacological Observations on the Hypotensive Action of Extracts of Teleost Fish Urophyses (Urotensin I) in the Rat." Br. J. Pharmacol. 51:315-324, 1974, and in anaesthetized dogs, MacCannell and Lederis, "Dilatation of the Mesenteric Vascular Bed of the Dog Produced by a Peptide, Urotensin I." J. Pharm. Exp. Ther. 203:38-46, 1977.

In assay [2] the test system is ACTH and β-END-LI secretion. In words: ACTH and β-END-LI secretion in vivo in several rat preparations. As for the experimental part:
as §1

For assay [3], the system named is mesenteric vascular bed. As to the kind of experiment: Blood pressure and mesenteric vasodilatation in the anaesthetized dog. It counts as in vivo. The note with it: for potency of synthetic peptide versus extracted and purified peptide: anaesthetized dog in vivo; for dilatation of vascular beds other than mesenteric / effect on blood pressure: dog; for effect on blood pressure: appears due solely to dilatation of the mesenteric vascular bed; for accompanying decrease in blood pressure / increase in mesenteric flow: pentobarbital-anaesthetized dog, doses of 0.1-0.5 μg. As to the method: as §1
(§2) In the pentobarbital-anaesthetized dog, the threshold dose of UI for mesenteric vasodilatation, when given close arterially into the cephalic mesenteric A, is between 0.001 and 0.01 μg for both carp UI (1-41) and for the 4-41 fragment of carp UI. Doses of 0.1-0.5 μg of both peptides produce a 50-150% increase in mesenteric flow; accompanying changes in blood pressure are very modest (about 10% decrease). […] Comp. Endocrinol. 45:446-452, 1981.

In assay [4] the test system is mesenteric vascular bed. As to the kind of experiment: Blood pressure and vascular dilatation in the monkey. The note with it: for effect on blood pressure: appears due solely to dilatation of the mesenteric vascular bed. It counts as in vivo.
In assay [5] the test system is blood pressure. In words: In vivo hypotensive activity in anaesthetized rats. Conditions: rat; vascular dilatation appears less selective. As for the experimental part: as §1
For the next assay, the system named is teleost fish pituitaries. In words: Secretion of ACTH by teleost fish pituitaries. As for the experimental part: as §1
Another assay deals with isolated rat hind limb. As to the kind of experiment: Isolated rat hind limb assay (UI activity). As for the experimental part:
as §1, §2

Assay [6] has as its system isolated mesenteric artery strips. In words: Isolated mesenteric artery strips of the rat.
The nature of assay [7]: Comparison of the two extracted and the two synthetic carp peptides (assay not specified). The note with it: synthetic versus extracted peptide. As for the experimental part: as §2
In assay [8] the test system is blood pressure. In words: Lowering of blood pressure (summary statement, species not stated). It counts as in vivo.
Assay [9] is described as follows: Biological activity (test not specified).
Assay [10] deals with blood pressure. The note with it: mammals; reported in the literature; cited from earlier work.
The test system of assay [11] is secretion of ACTH and β-endorphin. Conditions: reported in the literature; cited from earlier work.

For “H-NDDPPISIDLTFHLLRNMIEMARNENQREQAGLNRKYLDEV-NH2 [carp UI (1-41)]”, the “potency to stimulate ACTH and β-endorphin secretion relative to amunine (CRF)” value in [1] is “comparable to amunine (CRF)”. Further, the “stimulation of the secretion of ACTH and β-endorphin” value was “stimulate ACTH and β-endorphin activities in vitro” in assay [1] (listed as UI); “high potency” in assay [1] (listed as urotensin I). In addition, the “stimulation of ACTH and β-END-LI secretion in vivo” value in assay [2] (listed as UI) was “stimulate ACTH and β-endorphin activities in vitro and in vivo”; in assay [2] (listed as urotensin I) it was “stimulate ACTH and β-END-LI secretion in vivo”. Further, the “potency of synthetic peptide versus extracted and purified peptide” value was “equipotent with the extracted and purified peptides” with mesenteric vascular bed [3]; “equipotent with the extracted and purified peptides” in the assay on isolated rat hind limb; “equipotent with the extracted and purified peptides” in [6]. Besides, the “dilatation of vascular beds other than mesenteric” value (shortened to “dilatation”) in the assay with mesenteric vascular bed [3] and in the assay on mesenteric vascular bed [4] was “neither peptide dilates other vascular beds” each time. In addition, the “effect on blood pressure” value is given as “modest but sustained depression of the blood pressure” in the assay with mesenteric vascular bed [3], “modest but sustained depression of the blood pressure” with mesenteric vascular bed [4] and “more marked fall in blood pressure” with blood pressure [5]. The “accompanying decrease in blood pressure” value in the assay on mesenteric vascular bed [3] is “about 10%”. In addition, in the assay on mesenteric vascular bed [3], the “increase in mesenteric flow” value was 50-150%. The “potency relative to amunine in stimulating the secretion of ACTH” value in the assay with teleost fish pituitaries was “several times more potent than amunine”. Also, the “activity of synthetic peptide as % of the activity of the respective extracted carp UI peptide” value in [7] was 119±19%. Moreover, in the assay on blood pressure [8], the “lowering of blood pressure” value is “lower blood pressure for an extended time period”.

Take “H-PPISIDLTFHLLRNMIEMARNENQREQAGLNRKYLDEV-NH2 [UI 4-41]”: in assay [1], the “potency to stimulate ACTH and β-endorphin secretion relative to amunine (CRF)” value was “comparable to amunine (CRF)”; the “stimulation of the secretion of ACTH and β-endorphin” value was “high potency”. Further, the “stimulation of ACTH and β-END-LI secretion in vivo” value in [2] is “stimulate ACTH and β-END-LI secretion in vivo”. Further, in the assay on mesenteric vascular bed [3], the “potency of synthetic peptide versus extracted and purified peptide” value was “equipotent with the extracted and purified peptides”; the “dilatation” value is listed as “neither peptide dilates other vascular beds”; the “effect on blood pressure” value was “modest but sustained depression of the blood pressure”; the “accompanying decrease in blood pressure” value is listed as “about 10%”. Further, the “increase in mesenteric flow” value with mesenteric vascular bed [3] was 50-150%. Also, in the assay on mesenteric vascular bed [4], the “dilatation” value is recorded as “neither peptide dilates other vascular beds” and the “effect on blood pressure” value is on record as “modest but sustained depression of the blood pressure”. Also, in the assay on blood pressure [5], the “effect on blood pressure” value is recorded as “more marked fall in blood pressure”. In addition, the “potency relative to amunine in stimulating the secretion of ACTH” value in the assay with teleost fish pituitaries was “several times more potent than amunine”. In addition, the “potency of synthetic peptide versus extracted and purified peptide” value in the assay with isolated rat hind limb was “equipotent with the extracted and purified peptides”. Also, in assay [6], the “potency of synthetic peptide versus extracted and purified peptide” value was “equipotent with the extracted and purified peptides”. For the same compound, the “activity of synthetic peptide as % of the activity of the respective extracted carp UI peptide” value in [7] is given as 123±58%. Further, in assay [9], the biological activity result is “substantially the same biological activity as the 41-residue polypeptide”.

On to `CC[C@H](C)[C@H](NC(=O)[C@@H](NC(=O)[C@H](CC(=O)O)NC(=O)[C@H](CC(C)C)NC(=O)[C@H](CC(C)C)NC(=O)[C@H](CC(C)C)NC(=O)[C@H](CCCNC(=N)N)NC(=O)[C@H](CC(N)=O)NC(=O)[C@H](CC(N)=O)NC(=O)[C@H](C)NC(=O)[C@H](C)NC(=O)[C@H](CCC(N)=O)NC(=O)[C@H](CCC(N)=O)NC(=O)[C@H](CCCCN)NC(=O)[C@H](CCC(=O)O)NC(=O)[C@H](CCCCN)NC(=O)[C@H](CCC(=O)O)NC(=O)[C@H](CCC(N)=O)NC(=O)[C@H](CCCCN)NC(=O)[C@H](CCC(=O)O)NC(=O)[C@@H](NC(=O)[C@H](CCC(=O)O)NC(=O)[C@@H](NC(=O)[C@H](CCSC)NC(=O)[C@H](CCCCN)NC(=O)[C@H](CCCNC(=N)N)NC(=O)[C@H](CC(C)C)NC(=O)[C@H](CC(C)C)NC(=O)[C@H](CCC(=O)O)NC(=O)[C@H](CC(C)C)NC(=O)[C@H](CO)NC(=O)[C@H](CC(C)C)NC(=O)[C@H](CC(=O)O)NC(=O)[C@@H](NC(=O)[C@H](CO)NC(=O)[C@@H](NC(=O)[C@@H]1CCCN1C(=O)[C@@H]1CCCN1C(=O)CNC(=O)[C@@H]1CCC(=O)N1)[C@@H](C)CC)[C@@H](C)CC)[C@@H](C)CC)[C@@H](C)CC)[C@@H](C)O)C(N)=O` [Sauvagine], for which the lowering blood pressure entry in the assay with blood pressure [10] is “biological activity in lowering blood pressure in mammals”. The “stimulating the secretion of ACTH and β-endorphin” value in assay [11] is “stimulating the secretion of ACTH and β-endorphin”.
